In BindingDB's records for doi:10.1007/s10822-022-00478-x (Roche Innovation Center Basel, F. Hoffmann-La Roche Ltd., 2022):

What follows are compounds tested against cAMP and cAMP-inhibited cGMP 3',5'-cyclic phosphodiesterase 10A (Homo sapiens, UniProt Q9Y233) (assay: PDE10A assay).
Method in brief: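 Human PDE10A (2 ng/well) preincubated 15 min RT with compound in HEPES pH 7.5, 10 mM MgCl2, BSA, then reacted 15 min with 50 nM [3H]cGMP/cGMP substrate. Stopped with Y-Si SPA beads; bound radioactivity counted, IC50 from four-parameter logistic, pIC50 = −log10(IC50).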
An IC50 of 0.00423 µM was found for Cc1ccc2nc(OCc3nc(-c4ccccc4)cn3C)c(Cl)nc2c1 [Roche-Dataset for PDE10A, Compound 463] in this work. An IC50 of 0.00147 µM was found for COCc1ccc(Nc2cncnc2)c(C(=O)Nc2ccnn2-c2ccccn2)n1 [Roche-Dataset for PDE10A, Compound 386] in this work. An IC50 of 1.11 µM was found for O=C(NCCCN1CCCC1=O)c1nc(C2CC2)cnc1Nc1cncnc1 [Roche-Dataset for PDE10A, Compound 795] in this work. An IC50 of 0.00977 µM was found for Cn1cc(-c2ccccc2)nc1COc1cnc2cc(Cl)ccc2n1 [Roche-Dataset for PDE10A, Compound 598] in this work. An IC50 of 0.031 µM was found for O=C(Nc1cccc(OC(F)(F)F)c1)c1nc(C2CC2)cnc1Nc1cncnc1 [Roche-Dataset for PDE10A, Compound 874] in this work. An IC50 of 0.00984 µM was found for O=C(Nc1ccn(CCF)n1)c1nc(C2CC2)ccc1Nc1cncnc1 [Roche-Dataset for PDE10A, Compound 698] in this work. An IC50 of 0.032 µM was found for Cc1ncc(C)n2nc(/C=C/c3nc(N4CC[C@@H](C)[C@H]4C)nn3C)nc12 [Roche-Dataset for PDE10A, Compound 1115] in this work. An IC50 of 2.8 µM was found for Cn1nc(-c2ccccn2)cc1NC(=O)c1c(I)cc[nH]c1=O [Roche-Dataset for PDE10A, Compound 774] in this work. An IC50 of 0.011 µM was found for Cc1c(-c2ccccc2)nc2n1CC[C@@H](NC(=O)c1c(C(=O)N3CCC3)cnn1C)C2 [Roche-Dataset for PDE10A, Compound 173] in this work. An IC50 of 0.0056 µM was found for Cc1c(C(F)F)nc2ccc(CCc3nc(-c4ccccc4)cn3C)nn12 [US10399985, Example 19] in this work. An IC50 of 0.00274 µM was found for Cc1c(Cl)cc(C(F)(F)F)c2nc(/C=C/c3nc(N4CCCC4)nn3C)nn12 [Roche-Dataset for PDE10A, Compound 154] in this work. An IC50 of 10 µM was found for O=C(c1nc(C2CC2)cnc1Nc1cncnc1)N1CCN(C2CCCCC2)CC1 [Roche-Dataset for PDE10A, Compound 1040] in this work. An IC50 of 10 µM was found for COc1cccc(-c2noc(CCN3C(=O)c4ccccc4C3=O)n2)c1 [Roche-Dataset for PDE10A, Compound 332] in this work. An IC50 of 2.94 µM was found for Cn1cc(-c2ccccc2)nc1COc1cnc(Br)c(C(=O)Nc2cncnc2)n1 [Roche-Dataset for PDE10A, Compound 716] in this work. An IC50 of 1.34 µM was found for O=C(Nc1ccn2nc(-c3ccccc3)nc2c1)c1c(C(=O)N2CCC2)cnn1CCF [Roche-Dataset for PDE10A, Compound 131] in this work. An IC50 of 8.33 µM was found for CNC(=O)c1c(NC(=O)c2c(C(=O)N3CCC3)cnn2C)cnn1C [Roche-Dataset for PDE10A, Compound 1129] in this work. An IC50 of 1.86 µM was found for O=C(NCc1cocn1)c1nc(C2CC2)cnc1Nc1cncnc1 [Roche-Dataset for PDE10A, Compound 1089] in this work. An IC50 of 0.0084 µM was found for COC[C@H]1CCCN1c1n[nH]c(CCc2nc3c(C)ncc(C)n3n2)n1 [Roche-Dataset for PDE10A, Compound 376] in this work. An IC50 of 0.342 µM was found for O=C1c2ccccc2C(=O)N1CCc1nc(-c2ccccc2)cs1 [Roche-Dataset for PDE10A, Compound 150] in this work. An IC50 of 0.00639 µM was found for O=C(Nc1ccn(CC(F)(F)F)n1)c1nc(C2CC2)ccc1Nc1cncnc1 [Roche-Dataset for PDE10A, Compound 603] in this work. An IC50 of 0.302 µM was found for O=C(Nc1ccnc(Cl)c1)c1cn(-c2ccc3ccccc3n2)cn1 [Roche-Dataset for PDE10A, Compound 414] in this work. An IC50 of 1.99 µM was found for CCOC(=O)c1cnn(C)c1C(=O)Nc1ccc2nc(N3CCOCC3)nn2c1 [Roche-Dataset for PDE10A, Compound 1117] in this work. An IC50 of 1.48 µM was found for CCOc1ccccc1C(=O)Nc1cc(-c2ccccn2)n[nH]1 [Roche-Dataset for PDE10A, Compound 876] in this work. An IC50 of 0.182 µM was found for Cn1nnc(C(=O)N2CCC2)c1C(=O)Nc1ccn2nc(-c3ccccc3)nc2c1 [Roche-Dataset for PDE10A, Compound 250] in this work. An IC50 of 0.273 µM was found for O=C(NCc1nccn1Cc1ccccc1)c1nc(C2CC2)cnc1Nc1cncnc1 [Roche-Dataset for PDE10A, Compound 631] in this work. An IC50 of 0.036 µM was found for CCOC(=O)c1nnsc1NC(=O)c1nc(C2CC2)ccc1Nc1cncnc1 [Roche-Dataset for PDE10A, Compound 1107] in this work. An IC50 of 0.00048 µM was found for Cn1ncc(C(=O)N2CCC2)c1C(=O)Nc1ccc2nc(N3CCCC3)nn2c1 [Roche-Dataset for PDE10A, Compound 469] in this work. An IC50 of 0.354 µM was found for O=C(Nc1cc(Cl)ncc1Br)c1ccc2cc(-c3ccccc3)nn2c1 [Roche-Dataset for PDE10A, Compound 399] in this work. An IC50 of 0.041 µM was found for CCn1cc(-c2ccccc2)nc1CCc1nc2ccccc2nc1C [Roche-Dataset for PDE10A, Compound 87] in this work. An IC50 of 0.034 µM was found for Cc1c(C(F)(F)F)nc2ccc(OCc3nc(-c4ccccc4)cn3C)nn12 [US10399985, Example 36] in this work. An IC50 of 0.00151 µM was found for Cn1cncc1Cn1nc(-c2ccccn2)cc1NC(=O)c1nc(C2CC2)ccc1Nc1cncnc1 [US8470820, 37] in this work. An IC50 of 0.017 µM was found for Cc1nn2ccc(CCc3nc(N4CCCC4)nn3C)nc2c1C [US9617271, 53] in this work. An IC50 of 0.00054 µM was found for Cc1c(Cl)cc(OC(F)F)c2nc(CCc3nc(N4CCCC4)n(C)n3)nn12 [Roche-Dataset for PDE10A, Compound 206] in this work. An IC50 of 0.00914 µM was found for Cn1cc(-c2ccccc2)nc1CCc1nc2ccc(Cl)cc2c(=O)[nH]1 [Roche-Dataset for PDE10A, Compound 93] in this work. An IC50 of 10 µM was found for Cc1ncn(C)c1C(=O)Nc1cc(-c2ccccn2)nn1C [Roche-Dataset for PDE10A, Compound 772] in this work. An IC50 of 0.00785 µM was found for Cc1ccccc1-c1cn2c(n1)C[C@H](NC(=O)c1c(C(=O)N3CCC3)cnn1C)CC2 [Roche-Dataset for PDE10A, Compound 495] in this work. An IC50 of 0.499 µM was found for O=C(NCc1cccc(F)c1)c1nc(C2CC2)cnc1Nc1cncnc1 [Roche-Dataset for PDE10A, Compound 837] in this work. An IC50 of 0.062 µM was found for CNC(=O)c1cnn(C)c1C(=O)Nc1ccn2cc(-c3cccc(F)c3)nc2n1 [Roche-Dataset for PDE10A, Compound 656] in this work. An IC50 of 1.06 µM was found for Cc1ncc(C)n2nc(CCc3nc(N4CCNC4=O)nn3C)nc12 [Roche-Dataset for PDE10A, Compound 887] in this work. An IC50 of 0.00064 µM was found for COc1ccc(Cn2nc(N3CCCC3)nc2CCc2nc3c(Cl)cc(Cl)c(C)n3n2)cc1 [Roche-Dataset for PDE10A, Compound 97] in this work. An IC50 of 0.048 µM was found for O=C(Nc1ccn2nc(-c3ccccc3)nc2c1)c1cc(Cl)nc(N2CCCC2)c1 [Roche-Dataset for PDE10A, Compound 132] in this work. An IC50 of 0.015 µM was found for COc1nc(OCc2nc(-c3ccccc3)cn2C)nc2ccc(Cl)cc12 [Roche-Dataset for PDE10A, Compound 198] in this work. An IC50 of 0.208 µM was found for Cn1ncc(Cl)c1C(=O)Nc1ccn2nc(-c3ccccc3)nc2c1 [Roche-Dataset for PDE10A, Compound 433] in this work. An IC50 of 0.39 µM was found for CNC(=O)c1cc2[nH]c(-c3ccccc3)nc2cc1NC(=O)c1cc[nH]n1 [Roche-Dataset for PDE10A, Compound 619] in this work. An IC50 of 0.221 µM was found for Cn1cc(-c2ccccc2)nc1COc1ncc(C2CC2)nc1C(=O)NCC1CC1 [Roche-Dataset for PDE10A, Compound 191] in this work. An IC50 of 0.432 µM was found for COC(=O)c1cc(Cl)c(C)n2nc(CCc3nc(N4CCCC4)nn3C)nc12 [Roche-Dataset for PDE10A, Compound 325] in this work. An IC50 of 0.148 µM was found for O=C(NCc1ccc2c(c1)CCO2)c1nc(C2CC2)cnc1Nc1cncnc1 [Roche-Dataset for PDE10A, Compound 718] in this work. An IC50 of 0.00078 µM was found for Cn1ncc(C(=O)N2CCC2)c1C(=O)Nc1cc2nc(-c3ccccc3)nn2cc1F [Roche-Dataset for PDE10A, Compound 204] in this work. An IC50 of 0.016 µM was found for O=C(Nc1cccc(OCC(F)(F)F)c1)c1nc(C2CC2)cnc1Nc1cncnc1 [Roche-Dataset for PDE10A, Compound 694] in this work. An IC50 of 9.44 µM was found for Cn1ncc(C(=O)N2CCC2)c1C(=O)Nc1cc(C2CCCCC2)n[nH]1 [Roche-Dataset for PDE10A, Compound 991] in this work. An IC50 of 0.194 µM was found for O=C(Nc1ccn2nc(-c3ccccc3)nc2c1)c1onc2ccccc12 [Roche-Dataset for PDE10A, Compound 420] in this work. An IC50 of 0.329 µM was found for Cn1ncc(C(=O)N2CCC2)c1C(=O)Nc1ccn(CC2CC2)n1 [Roche-Dataset for PDE10A, Compound 1075] in this work. An IC50 of 0.048 µM was found for O=C(NCCc1noc(-c2ccccc2)n1)c1nc(C2CC2)cnc1Nc1cncnc1 [Roche-Dataset for PDE10A, Compound 271] in this work. An IC50 of 0.00024 µM was found for O=C(Nc1ccc2[nH]c(-c3ccccc3)nc2c1)c1nc(C2CC2)ccc1Nc1cncnc1 [Roche-Dataset for PDE10A, Compound 423] in this work. An IC50 of 0.00793 µM was found for CCN(C)C(=O)c1cnn(C)c1C(=O)Nc1ccn2cc(-c3cccc(OCC(=O)OC)c3)nc2n1 [Roche-Dataset for PDE10A, Compound 20] in this work. An IC50 of 0.027 µM was found for Cc1c(Cl)cc(Cl)c2nc(CCc3cn4c(n3)SCC4)nn12 [Roche-Dataset for PDE10A, Compound 760] in this work. An IC50 of 0.021 µM was found for CCOC(=O)c1cnn(C)c1C(=O)Nc1ccn2nc(N3CCCC3)nc2c1 [Roche-Dataset for PDE10A, Compound 353] in this work. An IC50 of 0.02 µM was found for Cc1cnn2c(C)c(CCc3nc(N4CCCC4)nn3C)nc2c1C [Roche-Dataset for PDE10A, Compound 216] in this work. An IC50 of 0.00474 µM was found for Cc1c(C(F)F)nc2ccc(C#Cc3nc(N4CCCC4)nn3C)nn12 [2-(Difluoromethyl)-3-methyl-6-((1-methyl-3-(pyrrolidin-1-yl)-1H-1,2,4-triazol-5-yl)ethynyl)imidazo[1,2-b]pyridazine] in this work. An IC50 of 0.00392 µM was found for Cc1c(C(F)(F)F)nc2ccc(C#Cc3nc(N4CCCC4)n(C)n3)nn12 [3-Methyl-6-((1-methyl-5-(pyrrolidin-1-yl)-1H-1,2,4-triazol-3-yl)ethynyl)-2-(trifluoromethyl)imidazo[1,2-b]pyridazine] in this work. An IC50 of 2.38 µM was found for CCOc1ccccc1C(=O)Nc1cc(-c2ccccn2)nn1C [Roche-Dataset for PDE10A, Compound 666] in this work. An IC50 of 0.019 µM was found for Cc1cnc(C)n2nc(/C=C/c3nc(N4CCCC4)nn3C3CC3)nc12 [Roche-Dataset for PDE10A, Compound 274] in this work. An IC50 of 0.053 µM was found for Cc1ccc(C)c(C(=O)Nc2ccc3cc(-c4ccccc4)nn3c2)n1 [Roche-Dataset for PDE10A, Compound 324] in this work.
